Measurements published in patent publication US20120029187A1, “HALOALKYLSULFONANILIDE DERIVATIVE” (Nissan Chemical Industries, Ltd., priority 2009, published 2012).

Key:
Type in all cases: in vivo
barnyardgrass [1] = assay: Test Example 1: herbicidal effects in preemergence treatment under submerged conditions; conditions: dose 2.52 g/a
Outline: (§1)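 Scoring 0 (<5% mortality) to 5 (≥90%) was done three weeks after preemergence application to the water surface of submerged (4 cm) alluvial soil, doses given as g per are. Weeds were seeded and 2.5-leaf rice transplanted on the treatment day; greenhouse at 25–30 °C.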

bulrush [2] = assay: as above; conditions: dose 2.52 g/a
Outline: as §1

ducksalad [3] = assay: as above; conditions: dose 2.52 g/a
Outline: as §1

transplanted rice = assay: Test Example 1: preemergence treatment under submerged conditions, effect on crop; conditions: dose 2.52 g/a
Outline: as §1

barnyardgrass [4] = assay: Test Example 2: herbicidal effects during the vegetation period under submerged conditions; conditions: treatment during the vegetation period under submerged conditions; dose 2.52 g/a
Outline: (§2)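 Barnyardgrass, bulrush and ducksalad were co-sown in alluvial soil flooded to 4 cm and grown in a greenhouse at 25 to 30° C. At the 1- or 2-leaf stage, water-diluted emulsifiable concentrates went onto the water surface at set doses (g/a). Herbicidal effect was scored three weeks later on a graded scale.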

bulrush [5] = assay: as above; conditions: treatment during the vegetation period under submerged conditions; dose 2.52 g/a
Outline: as §2

ducksalad [6] = assay: as above; conditions: treatment during the vegetation period under submerged conditions; dose 2.52 g/a
Outline: as §2

Italian ryegrass [7] = assay: Test Example 3: herbicidal effects in soil treatment; conditions: dose 3.2 g/a
Outline: (§3)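 Seeds were sown in sterilized diluvial soil and covered with about 1.5 cm of soil. Compounds, formulated as emulsifiable concentrates and diluted with water, were sprayed evenly over the soil surface at set doses in g/a. Herbicidal effect was scored on a rating scale three weeks later.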

barnyardgrass [8] = assay: as above; conditions: dose 3.2 g/a
Outline: as §3

beadstraw [9] = assay: as above; conditions: dose 3.2 g/a
Outline: as §3

common chickweed [10] = assay: as above; conditions: dose 3.2 g/a
Outline: as §3

common lambsquater [11] = assay: as above; conditions: dose 3.2 g/a
Outline: as §3

common ragweed [12] = assay: as above; conditions: dose 3.2 g/a
Outline: as §3

giant foxtail [13] = assay: as above; conditions: dose 3.2 g/a
Outline: as §3

large crabgrass [14] = assay: as above; conditions: dose 3.2 g/a
Outline: as §3

redroot pigweed [15] = assay: as above; conditions: dose 3.2 g/a
Outline: as §3

water foxtail [16] = assay: as above; conditions: dose 3.2 g/a
Outline: as §3

Italian ryegrass [17] = assay: Test Example 4: herbicidal effect in foliage treatment; conditions: dose 3.2 g/a, three weeks after the application
Outline: (§4)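 Seeds sown in sterilized diluvial soil under ~1.5 cm soil cover and grown 14 days in a greenhouse at 25 to 30° C. Emulsifiable concentrates diluted with water were then sprayed uniformly on foliage at predetermined doses (g/a). Herbicidal effect was scored three weeks after application on a graded evaluation scale.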

barnyardgrass [18] = assay: as above; conditions: dose 3.2 g/a, three weeks after the application
Outline: as §4

common chickweed [19] = assay: as above; conditions: dose 3.2 g/a, three weeks after the application
Outline: as §4

common lambsquater [20] = assay: as above; conditions: dose 3.2 g/a, three weeks after the application
Outline: as §4

common ragweed [21] = assay: as above; conditions: dose 3.2 g/a, three weeks after the application
Outline: as §4

giant foxtail [22] = assay: as above; conditions: dose 3.2 g/a, three weeks after the application
Outline: as §4

large crabgrass [23] = assay: as above; conditions: dose 3.2 g/a, three weeks after the application
Outline: as §4

posumbu knotweed [24] = assay: as above; conditions: dose 3.2 g/a, three weeks after the application
Outline: as §4

redroot pigweed [25] = assay: as above; conditions: dose 3.2 g/a, three weeks after the application
Outline: as §4

velvetleaf [26] = assay: as above; conditions: dose 3.2 g/a, three weeks after the application
Outline: as §4

water foxtail [27] = assay: as above; conditions: dose 3.2 g/a, three weeks after the application
Outline: as §4

wild oat [28] = assay: as above; conditions: dose 3.2 g/a, three weeks after the application
Outline: as §4

velvetleaf [29] = assay: Test Example 3: herbicidal effects in soil treatment; conditions: dose 3.2 g/a
Outline: as §3

wild oat [30] = assay: as above; conditions: dose 3.2 g/a
Outline: as §3

posumbu knotweed [31] = assay: as above; conditions: dose 3.2 g/a
Outline: as §3

beadstraw [32] = assay: Test Example 4: herbicidal effect in foliage treatment; conditions: dose 3.2 g/a, three weeks after the application
Outline: as §4

SMILES | A: barnyardgrass, herbicidal effect (evaluation scale 0-5) (barnyardgrass [1]) | B: bulrush, herbicidal effect (evaluation scale 0-5) (bulrush [2]) | C: ducksalad, herbicidal effect (evaluation scale 0-5) (ducksalad [3]) | a: transplanted rice, effect on crop (evaluation scale 0-5) (transplanted rice) | A: barnyardgrass, herbicidal effect (evaluation scale 0-5) (barnyardgrass [4]) | B: bulrush, herbicidal effect (evaluation scale 0-5) (bulrush [5]) | C: ducksalad, herbicidal effect (evaluation scale 0-5) (ducksalad [6]) | H: Italian ryegrass, herbicidal effect (Italian ryegrass [17]) | A: barnyardgrass, herbicidal effect (barnyardgrass [18]) | N: common chickweed, herbicidal effect (common chickweed [19]) | L: common lambsquater, herbicidal effect (common lambsquater [20]) | J: common ragweed, herbicidal effect (common ragweed [21]) | E: giant foxtail, herbicidal effect (giant foxtail [22]) | D: large crabgrass, herbicidal effect (large crabgrass [23]) | M: posumbu knotweed, herbicidal effect (posumbu knotweed [24]) | K: redroot pigweed, herbicidal effect (redroot pigweed [25]) | I: velvetleaf, herbicidal effect (velvetleaf [26]) | G: water foxtail, herbicidal effect (water foxtail [27]) | herbicidal effect, H: Italian ryegrass (Italian ryegrass [7]) | herbicidal effect, A: barnyardgrass (barnyardgrass [8]) | other results
CC1OC(C)(C)CC(=O)N1Cc1ccccc1NS(=O)(=O)C(F)(F)F (stereo not drawn) [II-72] | 5 (mortality of 90% or above (nearly complete death)) | 5 (mortality of 90% or above (nearly complete death)) | 5 (mortality of 90% or above (nearly complete death)) | 3 (mortality of at least 40% and less than 70%) | 5 (mortality of 90% or above (nearly complete death)) | 5 (mortality of 90% or above (nearly complete death)) | 5 (mortality of 90% or above (nearly complete death)) | 5 (mortality of 90% or above (nearly complete death)) | 4 (mortality of at least 70% and less than 90%) | 3 (mortality of at least 40% and less than 70%) | 1 (mortality of at least 5% and less than 20%) | 3 (mortality of at least 40% and less than 70%) | 4 (mortality of at least 70% and less than 90%) | 4 (mortality of at least 70% and less than 90%) | 3 (mortality of at least 40% and less than 70%) | 2 (mortality of at least 20% and less than 40%) | 5 (mortality of 90% or above (nearly complete death)) | 5 (mortality of 90% or above (nearly complete death)) |  |  | H: Italian ryegrass, herbicidal effect (evaluation scale 0-5) (Italian ryegrass [7]): 5 (mortality of 90% or above (nearly complete death)); A: barnyardgrass, herbicidal effect (evaluation scale 0-5) (barnyardgrass [8]): 5 (mortality of 90% or above (nearly complete death)); O: beadstraw, herbicidal effect (evaluation scale 0-5) (beadstraw [9]): 4 (mortality of at least 70% and less than 90%); N: common chickweed, herbicidal effect (evaluation scale 0-5) (common chickweed [10]): 4 (mortality of at least 70% and less than 90%); L: common lambsquater, herbicidal effect (evaluation scale 0-5) (common lambsquater [11]): 0 (mortality of less than 5% (almost ineffective)); J: common ragweed, herbicidal effect (evaluation scale 0-5) (common ragweed [12]): 4 (mortality of at least 70% and less than 90%); E: giant foxtail, herbicidal effect (evaluation scale 0-5) (giant foxtail [13]): 5 (mortality of 90% or above (nearly complete death)); D: large crabgrass, herbicidal effect (evaluation scale 0-5) (large crabgrass [14]): 5 (mortality of 90% or above (nearly complete death)); K: redroot pigweed, herbicidal effect (evaluation scale 0-5) (redroot pigweed [15]): 3 (mortality of at least 40% and less than 70%); G: water foxtail, herbicidal effect (evaluation scale 0-5) (water foxtail [16]): 5 (mortality of 90% or above (nearly complete death)); F: wild oat, herbicidal effect (wild oat [28]): 1 (mortality of at least 5% and less than 20%)
CCOC(=O)N(c1ccccc1CN1C(=O)C(Br)C(C)(C)OC1C)S(=O)(=O)C(F)(F)F (stereo not drawn) [II-76] |  |  |  |  |  |  |  |  |  |  |  |  |  |  |  |  |  |  | 0 (mortality of less than 5% (almost ineffective)) | 3 (mortality of at least 40% and less than 70%) | herbicidal effect, O: beadstraw (beadstraw [9]): 5 (mortality of 90% or above (nearly complete death)); herbicidal effect, N: common chickweed (common chickweed [10]): 3 (mortality of at least 40% and less than 70%); herbicidal effect, L: common lambsquater (common lambsquater [11]): 3 (mortality of at least 40% and less than 70%); herbicidal effect, J: common ragweed (common ragweed [12]): 0 (mortality of less than 5% (almost ineffective)); herbicidal effect, E: giant foxtail (giant foxtail [13]): 0 (mortality of less than 5% (almost ineffective)); herbicidal effect, D: large crabgrass (large crabgrass [14]): 3 (mortality of at least 40% and less than 70%); herbicidal effect, K: redroot pigweed (redroot pigweed [15]): 3 (mortality of at least 40% and less than 70%); herbicidal effect, I: velvetleaf (velvetleaf [29]): 3 (mortality of at least 40% and less than 70%); herbicidal effect, G: water foxtail (water foxtail [16]): 5 (mortality of 90% or above (nearly complete death)); herbicidal effect, F: wild oat (wild oat [30]): 0 (mortality of less than 5% (almost ineffective))
CCOC(=O)N(c1ccccc1CN1OCC(CC)OC1=O)S(=O)(=O)C(F)(F)F (stereo not drawn) [III-6] | 5 (mortality of 90% or above (nearly complete death)) | 5 (mortality of 90% or above (nearly complete death)) | 5 (mortality of 90% or above (nearly complete death)) | 0 (mortality of less than 5% (almost ineffective)) | 5 (mortality of 90% or above (nearly complete death)) | 5 (mortality of 90% or above (nearly complete death)) | 5 (mortality of 90% or above (nearly complete death)) | 2 (mortality of at least 20% and less than 40%) | 5 (mortality of 90% or above (nearly complete death)) | 4 (mortality of at least 70% and less than 90%) | 3 (mortality of at least 40% and less than 70%) | 4 (mortality of at least 70% and less than 90%) | 5 (mortality of 90% or above (nearly complete death)) | 3 (mortality of at least 40% and less than 70%) | 5 (mortality of 90% or above (nearly complete death)) | 4 (mortality of at least 70% and less than 90%) | 3 (mortality of at least 40% and less than 70%) | 5 (mortality of 90% or above (nearly complete death)) | 5 (mortality of 90% or above (nearly complete death)) | 5 (mortality of 90% or above (nearly complete death)) | herbicidal effect, O: beadstraw (beadstraw [9]): 4 (mortality of at least 70% and less than 90%); herbicidal effect, N: common chickweed (common chickweed [10]): 5 (mortality of 90% or above (nearly complete death)); herbicidal effect, L: common lambsquater (common lambsquater [11]): 4 (mortality of at least 70% and less than 90%); herbicidal effect, J: common ragweed (common ragweed [12]): 4 (mortality of at least 70% and less than 90%); herbicidal effect, E: giant foxtail (giant foxtail [13]): 4 (mortality of at least 70% and less than 90%); herbicidal effect, D: large crabgrass (large crabgrass [14]): 5 (mortality of 90% or above (nearly complete death)); herbicidal effect, M: posumbu knotweed (posumbu knotweed [31]): 5 (mortality of 90% or above (nearly complete death)); herbicidal effect, K: redroot pigweed (redroot pigweed [15]): 3 (mortality of at least 40% and less than 70%); herbicidal effect, I: velvetleaf (velvetleaf [29]): 5 (mortality of 90% or above (nearly complete death)); herbicidal effect, G: water foxtail (water foxtail [16]): 5 (mortality of 90% or above (nearly complete death)); O: beadstraw, herbicidal effect (beadstraw [32]): 3 (mortality of at least 40% and less than 70%)
